Experimental data published in US20220142959A1, “LEUCINE, ACETYL LEUCINE, AND RELATED ANALOGS FOR TREATING DISEASE” (priority 2019, published 2022).

Experiments:
α-fodrin = assay: Western blot of α-fodrin cleavage products in cortex after CCI induced TBI; format: in vivo, mice; details: NALL fed vs vehicle fed mouse cortices after TBI; oral gavage 10 mg/kg daily 4 days plus chow
Method: Controlled cortical impact (CCI) induced TBI was performed in male C57BL6/J mice (20-25 g). Briefly, after a 10-mm midline incision was made over the skull, the skin and fascia were retracted, and a 4-mm craniotomy was made on the central aspect of the left parietal bone of mice under surgical anesthesia (2-3% isoflurane evaporated in a gas mixture containing 70% N20 and 30% 02). Moderate injury was induced in the exposed brain by a custom microprocessor-controlled and compressed air driven pneumatic impactor of 3.5 mm diameter tip with the impact velocity of 6 m/s and a deformation depth of 2 mm. […]
The level of α-fodrin cleavage products in NALL treated, vehicle treated sham, and TBI mouse cortices were determined by Western blot analysis and using the TUNEL assay to assess whether NALL treatment decreases cortical cell death after TBI.
Around 5 mm tissue of ipsilateral cortex around the site of injury from TBI mice or the corresponding tissue of same volume around the same cortical region from sham mice were dissected and processed. […] Protein bands were detected using chemiluminiscence kit (Pierce, 34076) and visualized using Chemi-doc system (Bio-Rad). Band intensity was analyzed using Image Lab software (Bio-Rad) and normalized to loading control (β-Actin). […]

LC3-II and APP-CTFs = assay: EAL flux in NPC1 mice (cerebellum LC3-II and APP-CTFs); format: in vivo, mouse; details: treated 3 weeks
Description: FIG. 14 is a histogram of the ratio of LC3-II expression to βIII-tubulin in the cerebellum of mouse NPC1 brains at 9-12 weeks of age treated with ADLL, ALL, ADL, DLL, LL, DL, LLE, and miglustat (miglu.) for 3 weeks relative to untreated NPC1 cerebellum (n=4, mean±S.E.M).
FIG. 15 is a histogram of the ratio of APP-CTFs: full-length APP expression in the cerebellum of mouse NPC1 brains at 9-12 weeks of age treated with ADLL, ALL, ADL, DLL, LL, DL, LLE, and miglustat (miglu.) for 3 weeks relative to untreated NPC1 cerebellum (n=4, mean±S.E.M).
FIG. 16 is a histogram of the ratio of APP-CTF-6: full-length APP expression in the cerebellum of mouse NPC1 brains at 9-12 weeks of age treated with ADLL, ALL, ADL, DLL, LL, DL, and LLE for 3 weeks relative to untreated NPC1 cerebellum.
FIG. 17 is a histogram of the ratio of APP-CTF-7: full-length APP expression in the cerebellum of mouse NPC1 brains at 9-12 weeks of age treated with ADLL, ALL, ADL, DLL, LL, DL, and LLE for 3 weeks relative to untreated NPC1 cerebellum (n=4, mean±S.E.M).
The efficacy of ADLL, ALL, ADL, DLL, LL, DL, and LLE in alleviating the impairment of EAL flux in NPC1 mice was investigated. […] Without wishing to be bound by any particular theory, it is possible that ADL and LLE reduced autophagic vacuole (AV) build-up by inhibiting autophagosome formation, possibly through the activation mTORC1. […] Also, acetyl L-leucine (ALL), acetyl D-leucine (ADL) and L-leucine (LL) reduced CTF-7 expression, indicating some improvement in lysosomal proteolysis (FIG. 17).

[1] = system: cerebellar Purkinje cells; assay: Purkinje cell survival in Npc1−/− mice; format: in vivo; details: 59 days of age, compared to Npc1−/− UT
Description: FIG. 46 is an image showing cerebellar Purkinje cell loss progressing from anterior to posterior lobes and microglial activation in untreated Npc1^−/− mice and Npc1^−/− mice treated with ADLL, ALL, and ADL. Cerebellums were stained with calbindin-b (Purkinje cells) or CD68 (activated microglia).
FIG. 47 is a scatter graph showing Purkinje cell survival at 59 days of age in untreated Npc1^−/− mice and Npc1^−/− mice treated with ADLL, ALL, and ADL.
The combination of increased survival of neurons and a less inflammatory environment in the brain could improve brain function, quality of life, and delay the progression of disease in human subjects.

Question: Which results are given for `CC(=O)N[C@@H](CC(C)C)C(=O)O` [ALL, acetyl-L-leucine]?
Answer: level of 145-150 kDa fragments of α-fodrin (α-fodrin): lower level; CTF-7 expression / clearance (LC3-II and APP-CTFs): reduced; Purkinje cell survival in any cerebellar lobules [1]: did not improve
